≈ marks a conversion by molar mass, not a printed value. Bridge positions count the residues as written; N and C are the ends. Peptide text beside a SMILES is read from it. I, II: the chains in the order shown. * marks the point of attachment. Palmitoyl = CCCCCCCCCCCCCCCC(=O)*; Myristoyl = CCCCCCCCCCCCCC(=O)*; Hexanoyl = CCCCCC(=O)*
Assays:
Klebsiella pneumoniae = assay: Antibacterial activity against Klebsiella pneumoniae DM4299 after 24 hrs by broth microdilution method; format: functional; conditions: DM4299, 24 h
Escherichia coli [1] = assay: Antibacterial activity against Escherichia coli ATCC 25922 after 24 hrs by checkerboard assay in presence of kanamycin; format: functional
Pseudomonas aeruginosa [2] = assay: Induction of 1-N-phenylnaphthylamine uptake in Pseudomonas aeruginosa DM23155 at 400 uM after 1 hr by fluorescence assay relative to polymyxin B; format: functional
Pseudomonas aeruginosa [3] = assay: Antibacterial activity against Pseudomonas aeruginosa DM23155 after 24 hrs by checkerboard assay in presence of gentamicin; format: functional
Pseudomonas aeruginosa [4] = assay: Antibacterial activity against Pseudomonas aeruginosa DM23155 after 24 hrs by broth microdilution method; format: functional; conditions: DM23155, 24 h
Escherichia coli [5] = assay: Antibacterial activity against Escherichia coli ATCC 25922 after 24 hrs by broth microdilution method; format: functional; conditions: ATCC 25922, 24 h
Escherichia coli [6] = assay: Antibacterial activity against Escherichia coli ATCC 25922 after 24 hrs by checkerboard assay in presence of streptomycin; format: functional
Escherichia coli [7] = assay: Antibacterial activity against Escherichia coli ATCC 25922 after 24 hrs by checkerboard assay in presence of nalidixic acid; format: functional
Escherichia coli [8] = assay: Antibacterial activity against Escherichia coli ATCC 25922 after 24 hrs by checkerboard assay in presence of erythromycin; format: functional
Lipopolysaccharide (LPS) [9] = assay: Displacement of dansylcadaverine from Escherichia coli 0111:B4 LPS at 15 to 30 uM after 5 mins by high-throughput fluorescence displacement assay
Pseudomonas aeruginosa [10] = assay: Antibacterial activity against Pseudomonas aeruginosa DM23155 after 24 hrs by checkerboard assay in presence of kanamycin; format: functional
Lipopolysaccharide (LPS) [11] = assay: Induction of Escherichia coli 0111:B4 LPS neutralization using p-nitroaniline assessed as concentration required to neutralize 50% after 1 hr by limulus amebocyte lysate assay
Pseudomonas aeruginosa [12] = assay: Antibacterial activity against Pseudomonas aeruginosa DM23155 after 24 hrs by checkerboard assay in presence of streptomycin; format: functional
Pseudomonas aeruginosa [13] = assay: Antibacterial activity against Pseudomonas aeruginosa DM23155 after 24 hrs by checkerboard assay in presence of nalidixic acid; format: functional
[14] = Toxicity in New Zealand white rabbit erythrocytes assessed as hemolytic activity after 60 mins; format: cell-based, Oryctolagus cuniculus; conditions: erythrocyte, 1 h
Escherichia coli [15] = assay: Antibacterial activity against Escherichia coli ATCC 25922 after 24 hrs by checkerboard assay in presence of gentamicin; format: functional
Pseudomonas aeruginosa [16] = assay: Antibacterial activity against Pseudomonas aeruginosa DM23155 after 24 hrs by checkerboard assay in presence of erythromycin; format: functional
[17] = Self-aggregation activity of the compound using 8-(Phenylamino)-1-naphthalenesulfonic acid as fluorescent probe at 100 uM by fluorescence assay; format: physicochemical
[18] = Induction of calcein leakage from DOPC artificial membrane at 1:32 ratio of compound to lipid by fluorescence assay; format: physicochemical
[19] = Self-aggregation activity of the compound using 8-(Phenylamino)-1-naphthalenesulfonic acid as fluorescent probe at 20 uM by fluorescence assay; format: physicochemical
[20] = Induction of calcein leakage from DOPE/DOPG artificial membrane at 1:32 ratio of compound to lipid by fluorescence assay; format: physicochemical
[21] = Self-aggregation activity of the compound using 8-(Phenylamino)-1-naphthalenesulfonic acid as fluorescent probe at 300 uM by fluorescence assay in presence of 150 mM of NaCl; format: physicochemical
Pseudomonas aeruginosa [22] = assay: Induction of cytoplasmic membrane disruption in Pseudomonas aeruginosa DM23155 assessed as membrane integrity at 1 to 2 times MIC after 1 hr by fluorescence assay; format: functional

MIC (Klebsiella pneumoniae) [µM] | MIC (Pseudomonas aeruginosa [4]) [µM] | MIC (Escherichia coli [5]) [µM] | Activity (Lipopolysaccharide (LPS) [9]) [%] | EC50 (Lipopolysaccharide (LPS) [11]) [µM] | Activity [17] [%] | Activity [18] | Activity [19] [%] | Activity [20] | Activity [21] | Structure (SMILES) | HC10 [14] [µg/mL] | Activity (Pseudomonas aeruginosa [22]) [%] | other results
3 (≈ 6.96 µg/mL) | 3 (≈ 6.96 µg/mL) | 3 (≈ 6.96 µg/mL) | 86.4 | 413 | – | – | – | – | – | CCCCCC(=O)N[C@@H](CCCNC(=N)N)C(=O)NCC(=O)N[C@@H](CCCNC(=N)N)C(=O)N[C@@H](CCCCN)C(=O)NCC(=O)NCC(=O)N[C@@H](CCCNC(=N)N)C(=O)N[C@@H](CCCNC(=N)N)C(=O)NCCCC[C@H](NC(=O)[C@H](CCCNC(=N)N)NC(=O)[C@H](CCCNC(=N)N)NC(=O)CNC(=O)CNC(=O)[C@H](CCCCN)NC(=O)[C@H](CCCNC(=N)N)NC(=O)CNC(=O)[C@H](CCCNC(=N)N)NC(=O)CCCCC)C(=O)N[C@@H](CCCCN)C(=O)O (I: Hexanoyl-RGRKGGRRKK-OH / II: Hexanoyl-RGRKGGRR; amide I:9-II:C) | > 10000 | – | fractional inhibitory concentration index (FICI) (Escherichia coli [1]): 0.5; Activity (Pseudomonas aeruginosa [2]): 10.5%; fractional inhibitory concentration index (FICI) (Pseudomonas aeruginosa [3]): 0.31; fractional inhibitory concentration index (FICI) (Escherichia coli [6]): 0.38; fractional inhibitory concentration index (FICI) (Escherichia coli [7]): 0.75; fractional inhibitory concentration index (FICI) (Escherichia coli [8]): 0.75; fractional inhibitory concentration index (FICI) (Pseudomonas aeruginosa [10]): 0.5; fractional inhibitory concentration index (FICI) (Pseudomonas aeruginosa [12]): 0.5; fractional inhibitory concentration index (FICI) (Pseudomonas aeruginosa [13]): 0.63; fractional inhibitory concentration index (FICI) (Escherichia coli [15]): 0.56; fractional inhibitory concentration index (FICI) (Pseudomonas aeruginosa [16]): 0.56
10 (≈ 27.1 µg/mL) | 3 (≈ 8.13 µg/mL) | 1.5 (≈ 4.07 µg/mL) | 135 | 32.1 | 50 | Active | 50 | Active | Active | CCCCCCCCCCCCCC(=O)N[C@@H](CCCNC(=N)N)C(=O)NCC(=O)N[C@@H](CCCNC(=N)N)C(=O)N[C@@H](CCCCN)C(=O)N[C@H](C(=O)N[C@H](C(=O)N[C@@H](CCCNC(=N)N)C(=O)N[C@@H](CCCNC(=N)N)C(=O)NCCCC[C@H](NC(=O)[C@H](CCCNC(=N)N)NC(=O)[C@H](CCCNC(=N)N)NC(=O)[C@@H](NC(=O)[C@@H](NC(=O)[C@H](CCCCN)NC(=O)[C@H](CCCNC(=N)N)NC(=O)CNC(=O)[C@H](CCCNC(=N)N)NC(=O)CCCCCCCCCCCCC)C(C)C)C(C)C)C(=O)N[C@@H](CCCCN)C(=O)O)C(C)C)C(C)C (I: Myristoyl-RGRKVVRRKK-OH / II: Myristoyl-RGRKVVRR; amide I:9-II:C) | 252 | <50 | –
> 40 | > 40 | 10 (≈ 27.7 µg/mL) | 151 | 47.9 | 50 | Active | 50 | Active | Active | CCCCCCCCCCCCCCCC(=O)N[C@@H](CCCNC(=N)N)C(=O)NCC(=O)N[C@@H](CCCNC(=N)N)C(=O)N[C@@H](CCCCN)C(=O)N[C@H](C(=O)N[C@H](C(=O)N[C@@H](CCCNC(=N)N)C(=O)N[C@@H](CCCNC(=N)N)C(=O)NCCCC[C@H](NC(=O)[C@H](CCCNC(=N)N)NC(=O)[C@H](CCCNC(=N)N)NC(=O)[C@@H](NC(=O)[C@@H](NC(=O)[C@H](CCCCN)NC(=O)[C@H](CCCNC(=N)N)NC(=O)CNC(=O)[C@H](CCCNC(=N)N)NC(=O)CCCCCCCCCCCCCCC)C(C)C)C(C)C)C(=O)N[C@@H](CCCCN)C(=O)O)C(C)C)C(C)C (I: Palmitoyl-RGRKVVRRKK-OH / II: Palmitoyl-RGRKVVRR; amide I:9-II:C) | 114 | <50 | –

From ChEMBL document CHEMBL3603789, “N-Lipidated Peptide Dimers: Effective Antibacterial Agents against Gram-Negative Pathogens through Lipopolysaccharide Permeabilization” (J Med Chem, 2015)
